Earlier results in US20230018472A1, “RHINENCHYSIS COMPOSITION CONTAINING OLOPATADINE” (TOKO YAKUHIN KOGYO CO., LTD., priority 2019, published 2023).
Read-outs that look alike come from different tables or passages of the source.

**Q.** With `CN(C)CC/C=C1/c2ccccc2COc2ccc(CC(=O)O)cc21` [olopatadine] as the compound, how does the Solubility of olopatadine (around neutral pH) read?
**A.** very low

**Q.** And the Solubility of olopatadine (concentration 0.2% or more as free base, solution having pH of 5 or higher)?
**A.** not soluble
